In patent publication US20090172826A1, “Model System for TCR (ZETA) Chain Downregulation” (priority 2003, published 2009):

Columns and labels:
[1] = test system: splenocytes isolated from P. gingivalis-treated mice; type: cell-based, mouse; details: NH4Cl 20 mM 20 h or bafilomycin A1 5 h at 37° C.
splenic T cells [2] = test: CFSE division of splenic T cells from treated mice after ex vivo activation; type: in vivo, mouse; details: BALB/c mice
splenic T cells [3] = test: BrdU incorporation in Thy1.2+ splenic T cells from treated mice after ex vivo activation; design: species or system mouse; details: for percentage of BrdU+ T cells of total T cells: BALB/c mice
TCR ζ chain [4] = test: TCR ζ chain expression in T cells of antigen-treated mice (immunoblot, FACS, confocal); type: in vivo, mouse; details: full repeated-injection regimen, wild-type mice, versus control mice
TCR ζ chain [5] = test: In vitro incubation of isolated T cells and non-T cells with IFN-γ or anti-IFN-γ, ζ chain FACS; type: cell-based, mouse; details: IFN-γ 50 U/ml, 24 h, with or without control non-T cells
Method: T cells alone or mixed with the indicated non-T cell populations were incubated in vitro for 24 h in the presence or absence of IFN-γ (50 U/ml). Cells were stained for cell surface Thy 1.2 and for total ζ chain expression, as described in FIG. 1A-F, and ζ chain expression is shown.
To examine whether IFN-γ directly or indirectly affects all T cell populations in the spleen, T cells from control mice were exposed to IFN-γ in the presence or absence of control non-T cell populations in vitro.

splenocytes = test: Mitogen-induced splenocyte proliferation, 3H-thymidine uptake; type: in vivo, mouse; details: percent of response in control mice, FIG. 6c
Method: For mitogen-induced cell proliferation [Leshem, B. et al. (1999) J Immunol Methods 223, 249-54], splenocytes (2×10^6 cells/ml) were cultured in the presence of anti-CD3ε (145-2C11), 2.5 μg/ml concanavalin A (Con A, Biomakor, Israel), 2 ng/ml phorbol 12-myristatel3-acetate (PMA, Sigma) combined with 0.2 μM calcium ionophore (Sigma), or in medium alone. Following 48 h of incubation at 37° C., 1 μCi of [^3H]-thymidine was added to each well. Cells were harvested 8 h later using a Tomtec (USA) cell harvester and counted in a MicroBeta scintillation counter (Wallac, Finland).

[6] = Specific serum IgG1 and IgG2a antibodies by ELISA; type: in vivo, mouse; details: serum at day +9
Source text: FIG. 6A: To determine the type of response, mice were bled at day +9 of the experiment and the titer and isotype of the specific antibodies was established by ELISA. Endpoint titers are expressed as the reciprocal values of the last dilution with an OD of 0.1 at 405 nm above maximal absorbance values of samples collected from non-immunized mice.
(§1) Serum samples were collected at day +9 of the experiment and analyzed by ELISA for the levels of P.g.- or OVA-specific IgG1 and IgG2a antibodies as previously described [Houri-Haddad et al. (2000) id ibid.]. IFN-γ and IL-10 concentrations in the chamber exudates were determined at 4 and 24 h, respectively after the third P.g. injection by two-site ELISA [Frolov, I. et al. (1998) Immunology 93, 323-8].

IFN-γ = IFN-γ in chamber exudates by ELISA; type: in vivo, mouse; details: 4 h after the third injection
Method: (§2) The results are presented as the mean value of the individual mice in each treatment group. (n.d.) not detectable values of IFN-γ in the OVA-treated mice.
as §1

IL-10 = IL-10 in chamber exudates by ELISA; type: in vivo, mouse; details: 24 h after the third injection; P. gingivalis- versus OVA-treated mice
Method: as §2, §1

[7] = anti-CD3 and anti-CD28, 60 hours
[8] = activation with PMA and ionophore
[9] = activation with anti-CD3 and anti-CD28

For `Cl.N` [NH4Cl], the “ζ protein expression after incubation with lysosome inhibitor” value [1] was “largely restored ζ protein expression”.

In the case of “5′-TGACTGTGAAGGTTGGAGATGA-3′ (listed as DNA, chemistry not given here) [mutated CpG-ODNs, ID; NO.2]”, the “percentage of CFSE-labeled splenic T cells which divided 1-5 times” value (splenic T cells [2]; PMA and ionophore, 60 hours) is reported as 80%, the “percentage of CFSE-labeled splenic T cells which divided 1-5 times” value (splenic T cells [2]; [7]) is reported as 84% and the “percentage of BrdU+ T cells of total T cells” value (from here on “percentage … of total T cells”) (splenic T cells [3]; activation with ConA) is reported as 83%. For the same molecule, the “percentage … of total T cells” value (splenic T cells [3]; [8]) was 57% and the “percentage … of total T cells” value (splenic T cells [3]; [9]) was 71%.

With 5′-TGACTGTGAACGTTCGAGATGA-3′ [CpG-ODNs] the “ζ chain expression in splenocytes / splenic T cells” value (TCR ζ chain [4]) was “significant ζ chain down-regulation”, the “percentage of CFSE-labeled splenic T cells which divided 1-5 times” value (splenic T cells [2]; PMA and ionophore, 60 hours) was 57% and the “percentage of CFSE-labeled splenic T cells which divided 1-5 times” value (splenic T cells [2]; [7]) was 6%. The “T cell proliferation by BrdU incorporation” value (splenic T cells [3]; TCR-mediated stimuli (anti-CD3, Con A), compared to controls) was “significantly lower response”, the “percentage … of total T cells” value (splenic T cells [3]; activation with ConA) was 39% and the “percentage … of total T cells” value (splenic T cells [3]; [8]) was 80%. The “percentage … of total T cells” value (splenic T cells [3]; [9]) was 9%.

For IFN-γ, the “ζ chain expression in control T cells exposed in vitro” value (TCR ζ chain [5]) was “did not affect ζ chain expression”.

For `CO/C1=C\C(C)=C\[C@@H](C)[C@@H](O)[C@@H](C)C/C(C)=C/C=C/[C@H](OC)[C@@H]([C@@H](C)[C@@H](O)[C@H](C)[C@@]2(O)C[C@@H](O)[C@H](C)[C@@H](C(C)C)O2)OC1=O` [bafilomycin A], the “ζ protein expression after incubation with lysosome inhibitor” value [1] was “largely restored ζ protein expression”.

B1: OVA: chicken ovalbumin adsorbed to Al(OH)3 (Alum), then in PBS; elicits a TH2 response (protein, UniProt P01012 2-386, looked up)
Ovalbumin: GSIGAASMEFCFDVFKELKVHHANENIFYCPIAIMSALAMVYLGAKDSTRTQINKVVRFDKLPGFGDSIEAQCGTSVNVHSSLRDILNQITKPNDVYSFSLASRLYAEERYPILPEYLQCVKELYRGGLEPINFQTAADQARELINSWVESQTNGIIRNVLQPSSVDSQTAMVLVNAIVFKGLWEKAFKDEDTQAMPFRVTEQESKPVQMMYQIGLFRVASMASEKMKILELPFASGTMSMLVLLPDEVSGLEQLESIINFEKLTEWTSSNVMEERKIKVYLPRMKMEEKYNLTSVLMAMGITDVFSSSANLSGISSAESLKISQAVHAAHAEINEAGREVVGSAEAGVDAASVSEEFRADHPFLFCIKHIATNAVLFFGRCVSP
modifications: adsorbed to alum
notes: chicken ovalbumin adsorbed to Al(OH)3 (Alum), then in PBS; elicits a TH2 response
With B1 the “ζ chain expression in splenocytes / splenic T cells” value (TCR ζ chain [4]) was “did not induce profound ζ downregulation”, the “function (proliferative response) of T cells in the spleen” value (splenocytes) was “normal function” and the “specific serum antibodies, IgG1 and IgG2a isotype” value [6] was “of the IgG1 isotype and not of the IgG2a isotype”. The “IFN-γ concentration in chamber exudates” value (IFN-γ) was “practically undetectable” and the “IL-10 concentration in chamber exudates” value (IL-10) was “no great difference”.
